Experimental data published in patent publication US11230543B2, “Biaryl monobactam compounds and methods of use thereof for the treatment of bacterial infections” (priority 2015, dated 2022).
Counter-ions that a name gives are not always drawn.

Tests used:
[1] = system: Klebsiella pneumoniae expressing KPC-1 (CL6569); assay: Antibiotic activity: growth inhibitory concentration (OD600), Klebsiella pneumoniae CL6569; assay type: cell-based; conditions: lowest concentration inhibiting 95% of bacterial growth; in the presence of β lactamase inhibitor Relebactam 4 μg/mL; 35±2° C. for 22 hours; tested range 100 μM to 0.098 μM
Procedure, shortened: (§1)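 Clinical strains at ~2×10^5 CFU/mL in cation-adjusted Mueller-Hinton II broth, with relebactam at 4 μg/mL final; compounds 100 μM to 0.098 μM final. After 22 hours at 35±2° C, OD600 read; MITC95 is lowest concentration giving 95% growth inhibition.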

[2] = system: Pseudomonas aeruginosa expressing AmpC (CL5701); assay: Antibiotic activity: growth inhibitory concentration (OD600), Pseudomonas aeruginosa CL5701; assay type: cell-based; conditions: lowest concentration inhibiting 95% of bacterial growth; in the presence of β lactamase inhibitor Relebactam 4 μg/mL; 35±2° C. for 22 hours; tested range 100 μM to 0.098 μM
Procedure, shortened: as §1

C[n+]1cc(-c2ccc(OC[C@H](O/N=C(\C(=O)N[C@@H]3C(=O)N(OS(=O)(=O)[O-])C3(C)C)c3csc(N)n3)C(=O)O)cc2)ccc1CNCCN [Example 78, (S)-3-((Z)-2-(((S)-2-(4-(6-(((2-aminoethyl)amino)methyl)-1-methylpyridin-1-ium-3-yl)phenoxy)-1-carboxyethoxy)imino)-2-(2-aminothiazol-4-yl)acetamido)-2,2-dimethyl-4-oxoazetidin-1-yl sulfate]
KP_CL6569 MITC95 [1]: 0.7813 µM
PA_CL5701 MITC95 [2]: 12.5 µM

C[n+]1cc(-c2ccc(OC[C@H](O/N=C(\C(=O)N[C@@H]3C(=O)N(OS(=O)(=O)[O-])C3(C)C)c3csc(N)n3)C(=O)O)cc2)ccc1CNC(CN)CN [Example 79, (S)-3-((Z)-2-(2-aminothiazol-4-yl)-2-(((S)-1-carboxy-2-(4-(6-(((1,3-diaminopropan-2-yl)amino)methyl)-1-methylpyridin-1-ium-3-yl)phenoxy)ethoxy)imino)acetamido)-2,2-dimethyl-4-oxoazetidin-1-yl sulfate]
KP_CL6569 MITC95 [1]: 0.3906 µM
PA_CL5701 MITC95 [2]: 6.25 µM

C[n+]1cc(-c2ccc(OC[C@H](O/N=C(\C(=O)N[C@@H]3C(=O)N(OS(=O)(=O)[O-])C3(C)C)c3csc(N)n3)C(=O)O)cc2)ccc1C(=O)NC(CN)CN [Example 80, (S)-3-((Z)-2-(2-aminothiazol-4-yl)-2-(((S)-1-carboxy-2-(4-(6-((1,3-diaminopropan-2-yl)carbamoyl)-1-methylpyridin-1-ium-3-yl)phenoxy)ethoxy)imino)acetamido)-2,2-dimethyl-4-oxoazetidin-1-yl sulfate]
KP_CL6569 MITC95 [1]: 0.1953 µM
PA_CL5701 MITC95 [2]: 3.125 µM

CC1(C)[C@H](NC(=O)/C(=N\O[C@@H](COc2ccc(-c3ccc(C(=O)NC(CN)CN)nc3)cc2)C(=O)O)c2csc(N)n2)C(=O)N1OS(=O)(=O)O [Example 81, (S)-2-((((Z)-1-(2-aminothiazol-4-yl)-2-(((S)-2,2-dimethyl-4-oxo-1-(sulfooxy)azetidin-3-yl)amino)-2-oxoethylidene)amino)oxy)-3-(4-(6-((1,3-diaminopropan-2-yl)carbamoyl)pyridin-3-yl)phenoxy)propanoic acid]
KP_CL6569 MITC95 [1]: 0.1953 µM
PA_CL5701 MITC95 [2]: 3.125 µM

C[n+]1cc(-c2ccc(OC[C@H](O/N=C(\C(=O)N[C@@H]3C(=O)N(OS(=O)(=O)[O-])C3(C)C)c3csc(N)n3)C(=O)O)cc2)ccc1NC(CN)CN [Example 82, (S)-3-((Z)-2-(2-aminothiazol-4-yl)-2-(((S)-1-carboxy-2-(4-(6-((1,3-diaminopropan-2-yl)amino)-1-methylpyridin-1-ium-3-yl)phenoxy)ethoxy)imino)acetamido)-2,2-dimethyl-4-oxoazetidin-1-yl sulfate]
KP_CL6569 MITC95 [1]: 0.1953 µM
PA_CL5701 MITC95 [2]: 3.125 µM

C[n+]1cc(-c2ccc(OC[C@H](O/N=C(\C(=O)N[C@@H]3C(=O)N(OS(=O)(=O)[O-])C3(C)C)c3csc(N)n3)C(=O)O)cc2)cnc1N(CCN)CC1CNC1 [Example 83, (S)-3-((Z)-2-(((S)-2-(4-(2-((2-aminoethyl)(azetidin-3-ylmethyl)amino)-1-methylpyrimidin-1-ium-5-yl)phenoxy)-1-carboxyethoxy)imino)-2-(2-aminothiazol-4-yl)acetamido)-2,2-dimethyl-4-oxoazetidin-1-yl sulfate]
KP_CL6569 MITC95 [1]: 0.1953 µM
PA_CL5701 MITC95 [2]: 1.563 µM

C[n+]1cc(-c2ccc(OC(CO/N=C(\C(=O)N[C@@H]3C(=O)N(OS(=O)(=O)[O-])C3(C)C)c3csc(N)n3)C(=O)O)cc2)cn1CCCN (stereo partly drawn) [Example 84, (3S)-3-((2-(4-(1-(3-aminopropyl)-2-methyl-1H-pyrazol-2-ium-4-yl)phenoxy)-2-carboxyethoxy)imino)-2-(2-aminothiazol-4-yl)acetamido)-2,2-dimethyl-4-oxoazetidin-1-yl sulfate]
KP_CL6569 MITC95 [1]: 2.5 µM
PA_CL5701 MITC95 [2]: 40 µM

CC1(C)[C@H](NC(=O)/C(=N\OCCOc2ccc(-c3nc4c([nH]3)CNCC4)cc2)c2csc(N)n2)C(=O)N1OS(=O)(=O)O [Example 86, (S)-3-(2-(2-aminothiazol-4-yl)-2-((2-(4-(4,5,6,7-tetrahydro-3H-imidazo[4,5-c]pyridin-2-yl)phenoxy)ethoxy)imino)acetamido)-2,2-dimethyl-4-oxoazetidin-1-yl hydrogen sulfate]
KP_CL6569 MITC95 [1]: 1.281 µM
PA_CL5701 MITC95 [2]: 25 µM

C[n+]1cc(-c2ccc(OC[C@](C)(O/N=C(\C(=O)N[C@@H]3C(=O)N(OS(=O)(=O)O)C3(C)C)c3csc(N)n3)C(=O)O)cc2)ccc1NCCN [Example 87, (S)-3-((Z)-2-((((S)-1-(4-(6-((2-aminoethyl)amino)-1-methylpyridin-1-ium-3-yl)phenoxy)-2-carboxypropan-2-yl)oxy)imino)-2-(2-aminothiazol-4-yl)acetamido)-2,2-dimethyl-4-oxoazetidin-1-yl sulfate]
KP_CL6569 MITC95 [1]: 0.1953 µM
PA_CL5701 MITC95 [2]: 3.125 µM

C[n+]1cc(-c2ccc(OC[C@H](O/N=C(\C(=O)N[C@@H]3C(=O)N(OS(=O)(=O)O)C3(C)C)c3csc(N)n3)C(=O)O)cc2)ccc1CCCN [Example 88, (S)-3-((Z)-2-(((S)-2-(4-(6-(3-aminopropyl)-1-methylpyridin-1-ium-3-yl)phenoxy)-1-carboxyethoxy)imino)-2-(2-aminothiazol-4-yl)acetamido)-2,2-dimethyl-4-oxoazetidin-1-yl sulfate]
KP_CL6569 MITC95 [1]: 0.3906 µM
PA_CL5701 MITC95 [2]: 3.125 µM

C[n+]1cc(-c2ccc(OC[C@@H](CO)O/N=C(\C(=O)N[C@@H]3C(=O)N(OS(=O)(=O)O)C3(C)C)c3csc(N)n3)cc2)ccc1NCCN [Example 89, (S)-3-((Z)-2-((((R)-1-(4-(6-((2-aminoethyl)amino)-1-methylpyridin-1-ium-3-yl)phenoxy)-3-hydroxypropan-2-yl)oxy)imino)-2-(2-aminothiazol-4-yl)acetamido)-2,2-dimethyl-4-oxoazetidin-1-yl sulfate]
KP_CL6569 MITC95 [1]: 1.563 µM
PA_CL5701 MITC95 [2]: 50 µM

C[C@@H](COc1ccc(-c2ccc(NCCN)[n+](C)c2)cc1)O/N=C(\C(=O)N[C@@H]1C(=O)N(OS(=O)(=O)O)C1(C)C)c1csc(N)n1 [Example 90, (S)-3-((Z)-2-((((S)-1-(4-(6-((2-aminoethyl)amino)-1-methylpyridin-1-ium-3-yl)phenoxy)propan-2-yl)oxy)imino)-2-(2-aminothiazol-4-yl)acetamido)-2,2-dimethyl-4-oxoazetidin-1-yl sulfate]
KP_CL6569 MITC95 [1]: 1.563 µM
PA_CL5701 MITC95 [2]: 25 µM

C[n+]1cc(-c2ccc(NCC(O/N=C(\C(=O)N[C@@H]3C(=O)N(OS(=O)(=O)[O-])C3(C)C)c3csc(N)n3)C(=O)O)cc2)cn1CCCN (stereo partly drawn) [Example 91, (3S)-3-(2-((2-((4-(1-(3-aminopropyl)-2-methyl-1H-pyrazol-2-ium-4-yl)phenyl)amino)-1-carboxyethoxy)imino)-2-(2-aminothiazol-4-yl)acetamido)-2,2-dimethyl-4-oxoazetidin-1-yl sulfate]
KP_CL6569 MITC95 [1]: 0.7813 µM
PA_CL5701 MITC95 [2]: 12.5 µM

CN(CC(O/N=C(\C(=O)N[C@@H]1C(=O)N(OS(=O)(=O)[O-])C1(C)C)c1csc(N)n1)C(=O)O)c1ccc(-c2cn(CCCN)[n+](C)c2)cc1 (stereo partly drawn) [Example 92, (3S)-3-(2-((2-((4-(1-(3-aminopropyl)-2-methyl-1H-pyrazol-2-ium-4-yl)phenyl)(methyl)amino)-1-carboxyethoxy)imino)-2-(2-aminothiazol-4-yl)acetamido)-2,2-dimethyl-4-oxoazetidin-1-yl sulfate]
KP_CL6569 MITC95 [1]: 6.25 µM
PA_CL5701 MITC95 [2]: 100 µM

CC1(C)[C@H](NC(=O)/C(=N\O[C@@H](COc2ccc(C3CN=C(NCCN)NC3)cc2)C(=O)O)c2csc(N)n2)C(=O)N1OS(=O)(=O)O (stereo partly drawn) [Example 94, (2S)-3-(4-(2-((2-aminoethyl)amino)-1,4,5,6-tetrahydropyrimidin-5-yl)phenoxy)-2-((((Z)-1-(2-aminothiazol-4-yl)-2-(((S)-2,2-dimethyl-4-oxo-1-(sulfooxy)azetidin-3-yl)amino)-2-oxoethylidene)amino)oxy)propanoic acid]
KP_CL6569 MITC95 [1]: 0.1953 µM
PA_CL5701 MITC95 [2]: 3.125 µM

CC1(C)[C@H](NC(=O)/C(=N\O[C@@](C)(COc2ccc(C3CN=C(NCCN)NC3)cc2)C(=O)O)c2csc(N)n2)C(=O)N1OS(=O)(=O)O (stereo partly drawn) [Example 95, (2S)-3-(4-(2-((2-aminoethyl)amino)-1,4,5,6-tetrahydropyrimidin-5-yl)phenoxy)-2-((((Z)-1-(2-aminothiazol-4-yl)-2-(((S)-2,2-dimethyl-4-oxo-1-(sulfooxy)azetidin-3-yl)amino)-2-oxoethylidene)amino)oxy)-2-methylpropanoic acid]
KP_CL6569 MITC95 [1]: 0.3906 µM
PA_CL5701 MITC95 [2]: 3.125 µM

Cn1c(-c2ccc(OC[C@H](O/N=C(\C(=O)N[C@@H]3C(=O)N(OS(=O)(=O)O)C3(C)C)c3csc(N)n3)C(=O)O)cc2F)cn(CCCN)c1=N [Example 96, (S)-3-(4-(1-(3-aminopropyl)-2-imino-3-methyl-2,3-dihydro-1H-imidazol-4-yl)-3-fluorophenoxy)-2-((((Z)-1-(2-aminothiazol-4-yl)-2-(((S)-2,2-dimethyl-4-oxo-1-(sulfooxy)azetidin-3-yl)amino)-2-oxoethylidene)amino)oxy)propanoic acid]
KP_CL6569 MITC95 [1]: 0.3906 µM
PA_CL5701 MITC95 [2]: 6.25 µM

CC1(C)[C@H](NC(=O)/C(=N\O[C@@H](COc2ccc(-c3cn(CCCN)[n+](CC4CNC4)c3)cc2)C(=O)O)c2csc(N)n2)C(=O)N1OS(=O)(=O)[O-] [Example 97, (S)-3-((Z)-2-(((S)-2-(4-(1-(3-aminopropyl)-2-(azetidin-3-ylmethyl)-1H-pyrazol-2-ium-4-yl)phenoxy)-1-carboxyethoxy)imino)-2-(2-aminothiazol-4-yl)acetamido)-2,2-dimethyl-4-oxoazetidin-1-yl sulfate]
KP_CL6569 MITC95 [1]: 0.125 µM
PA_CL5701 MITC95 [2]: 1.781 µM
